This is an account of results in ChEMBL document CHEMBL5291721, “A preclinical secondary pharmacology resource illuminates target-adverse drug reaction associations of marketed drugs” (Nat Commun, 2023).

Targets include Adenosine receptor A2a (Homo sapiens, UniProt P29274); Melanocortin receptor 4 (Homo sapiens, UniProt P32245); Mu-type opioid receptor (Homo sapiens, UniProt P35372).
In another experiment the target is T1, Adenosine receptor A3 (Homo sapiens, UniProt P0DMS8).
T1 sequence (P0DMS8 whole entry): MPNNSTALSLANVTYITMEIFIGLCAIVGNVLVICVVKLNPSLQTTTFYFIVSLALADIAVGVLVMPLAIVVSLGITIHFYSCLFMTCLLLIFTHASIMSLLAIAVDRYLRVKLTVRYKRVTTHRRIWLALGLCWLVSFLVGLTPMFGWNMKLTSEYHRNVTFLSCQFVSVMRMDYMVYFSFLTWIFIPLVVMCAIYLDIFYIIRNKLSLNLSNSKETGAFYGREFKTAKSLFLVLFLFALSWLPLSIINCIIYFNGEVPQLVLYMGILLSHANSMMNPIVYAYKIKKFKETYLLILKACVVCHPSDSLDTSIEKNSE

Experiment [1] deals with Beta-2 adrenergic receptor (Homo sapiens, UniProt P07550). In kind it is functional, cell-based.
Chain of Beta-2 adrenergic receptor (P07550 whole entry): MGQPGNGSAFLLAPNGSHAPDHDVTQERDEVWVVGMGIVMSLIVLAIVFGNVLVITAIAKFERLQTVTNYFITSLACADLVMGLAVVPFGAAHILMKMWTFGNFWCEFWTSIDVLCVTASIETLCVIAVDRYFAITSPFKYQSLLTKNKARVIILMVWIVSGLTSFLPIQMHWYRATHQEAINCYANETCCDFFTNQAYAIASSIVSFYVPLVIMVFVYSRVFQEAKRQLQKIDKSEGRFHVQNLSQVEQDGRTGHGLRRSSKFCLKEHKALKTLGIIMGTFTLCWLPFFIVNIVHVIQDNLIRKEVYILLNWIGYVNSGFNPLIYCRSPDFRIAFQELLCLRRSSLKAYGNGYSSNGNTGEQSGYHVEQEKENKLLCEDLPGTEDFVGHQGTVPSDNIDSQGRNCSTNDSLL
The target in experiment [2] is Muscarinic acetylcholine receptor M3 (Homo sapiens, UniProt P20309).
Chain of Muscarinic acetylcholine receptor M3 (P20309 whole entry): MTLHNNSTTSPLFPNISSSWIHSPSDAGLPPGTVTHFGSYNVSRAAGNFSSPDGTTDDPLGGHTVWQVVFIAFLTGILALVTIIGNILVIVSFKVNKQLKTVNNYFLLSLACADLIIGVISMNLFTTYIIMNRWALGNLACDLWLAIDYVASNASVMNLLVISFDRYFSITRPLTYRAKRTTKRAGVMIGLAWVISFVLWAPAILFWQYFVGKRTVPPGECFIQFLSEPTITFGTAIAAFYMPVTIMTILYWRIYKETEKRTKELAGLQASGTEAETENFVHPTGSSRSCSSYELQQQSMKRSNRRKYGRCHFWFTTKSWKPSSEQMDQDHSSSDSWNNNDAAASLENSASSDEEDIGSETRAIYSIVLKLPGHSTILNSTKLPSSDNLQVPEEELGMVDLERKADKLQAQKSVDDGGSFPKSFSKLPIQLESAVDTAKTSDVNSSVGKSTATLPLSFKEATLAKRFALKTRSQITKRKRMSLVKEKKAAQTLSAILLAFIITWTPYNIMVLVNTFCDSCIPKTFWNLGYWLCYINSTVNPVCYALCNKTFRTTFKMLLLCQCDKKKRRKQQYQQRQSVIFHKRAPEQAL
In experiment [3] the target is T2, Cannabinoid receptor 1 (Homo sapiens, UniProt P21554). Type of experiment: functional, cell-based.
T2 sequence (P21554 whole entry): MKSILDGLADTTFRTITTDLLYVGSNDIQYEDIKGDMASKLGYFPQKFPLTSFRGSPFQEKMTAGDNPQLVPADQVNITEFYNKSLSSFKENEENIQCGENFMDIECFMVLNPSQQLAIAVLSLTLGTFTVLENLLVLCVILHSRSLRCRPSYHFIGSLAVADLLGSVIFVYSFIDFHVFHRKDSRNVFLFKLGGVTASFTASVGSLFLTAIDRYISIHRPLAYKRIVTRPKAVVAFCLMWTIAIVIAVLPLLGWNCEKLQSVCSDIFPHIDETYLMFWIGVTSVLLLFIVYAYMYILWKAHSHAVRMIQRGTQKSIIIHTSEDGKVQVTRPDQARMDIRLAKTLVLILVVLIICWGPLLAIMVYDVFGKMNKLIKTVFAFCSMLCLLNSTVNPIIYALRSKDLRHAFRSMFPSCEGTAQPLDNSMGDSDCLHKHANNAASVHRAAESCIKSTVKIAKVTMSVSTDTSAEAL
Experiment [4] has as its target T2, Cannabinoid receptor 1. Type of experiment: functional, cell-based. The source holds these as a separate data set.
A further experiment concerns the target T3, Endothelin-1 receptor (Homo sapiens, UniProt P25101).
T3 sequence (P25101 whole entry): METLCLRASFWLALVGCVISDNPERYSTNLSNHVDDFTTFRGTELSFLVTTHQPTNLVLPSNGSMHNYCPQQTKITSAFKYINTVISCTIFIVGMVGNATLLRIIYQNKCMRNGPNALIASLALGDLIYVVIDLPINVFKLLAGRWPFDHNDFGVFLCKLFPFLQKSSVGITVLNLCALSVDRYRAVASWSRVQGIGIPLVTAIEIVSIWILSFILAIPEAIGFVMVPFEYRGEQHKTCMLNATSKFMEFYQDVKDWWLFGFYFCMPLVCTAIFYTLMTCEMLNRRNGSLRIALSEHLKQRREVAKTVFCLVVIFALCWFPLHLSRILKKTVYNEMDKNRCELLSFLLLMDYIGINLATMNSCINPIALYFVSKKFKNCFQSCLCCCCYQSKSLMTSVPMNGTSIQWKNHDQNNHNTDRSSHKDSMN

For experiment [5], the target named is T4, 5-hydroxytryptamine receptor 2A (Homo sapiens, UniProt P28223). In kind it is functional, cell-based.
T4 sequence (P28223 whole entry): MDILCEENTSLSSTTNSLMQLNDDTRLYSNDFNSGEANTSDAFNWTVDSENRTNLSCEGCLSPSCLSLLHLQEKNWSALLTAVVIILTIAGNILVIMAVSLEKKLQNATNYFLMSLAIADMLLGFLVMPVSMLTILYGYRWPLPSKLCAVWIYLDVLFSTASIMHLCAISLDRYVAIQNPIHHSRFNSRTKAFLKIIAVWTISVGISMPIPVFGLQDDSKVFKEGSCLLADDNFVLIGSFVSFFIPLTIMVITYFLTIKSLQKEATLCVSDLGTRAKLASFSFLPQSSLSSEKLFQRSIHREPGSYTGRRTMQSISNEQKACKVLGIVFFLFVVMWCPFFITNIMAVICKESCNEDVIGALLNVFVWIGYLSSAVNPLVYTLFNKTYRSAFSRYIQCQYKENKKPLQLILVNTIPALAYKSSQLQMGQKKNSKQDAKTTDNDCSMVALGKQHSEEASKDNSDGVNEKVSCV
Experiment [6] concerns the target T4, 5-hydroxytryptamine receptor 2A. Type of experiment: functional, cell-based. The source holds these as a separate data set.
The target of experiment [7] is T5, Prostaglandin G/H synthase 1 (Rattus norvegicus, UniProt Q63921).
T5 sequence (Q63921 whole entry): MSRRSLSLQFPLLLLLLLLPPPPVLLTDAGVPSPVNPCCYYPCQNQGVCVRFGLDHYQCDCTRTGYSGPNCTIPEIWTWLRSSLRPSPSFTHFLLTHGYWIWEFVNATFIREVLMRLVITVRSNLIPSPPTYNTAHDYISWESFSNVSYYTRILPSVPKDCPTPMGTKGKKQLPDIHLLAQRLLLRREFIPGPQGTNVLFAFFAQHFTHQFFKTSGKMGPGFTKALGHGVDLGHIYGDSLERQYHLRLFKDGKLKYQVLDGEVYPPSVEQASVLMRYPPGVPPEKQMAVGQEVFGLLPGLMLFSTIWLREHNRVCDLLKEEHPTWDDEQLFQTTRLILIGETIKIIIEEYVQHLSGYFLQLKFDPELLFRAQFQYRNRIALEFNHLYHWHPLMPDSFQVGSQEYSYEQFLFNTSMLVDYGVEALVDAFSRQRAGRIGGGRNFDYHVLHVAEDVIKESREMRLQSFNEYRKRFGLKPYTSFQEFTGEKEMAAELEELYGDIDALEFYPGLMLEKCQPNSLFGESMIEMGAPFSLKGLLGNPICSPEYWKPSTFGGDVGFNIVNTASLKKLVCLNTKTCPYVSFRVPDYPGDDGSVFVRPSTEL
In kind it is functional.

Experiment [8] concerns the target T6, 5-hydroxytryptamine receptor 1A (Homo sapiens, UniProt P08908).
T6 sequence (P08908 whole entry): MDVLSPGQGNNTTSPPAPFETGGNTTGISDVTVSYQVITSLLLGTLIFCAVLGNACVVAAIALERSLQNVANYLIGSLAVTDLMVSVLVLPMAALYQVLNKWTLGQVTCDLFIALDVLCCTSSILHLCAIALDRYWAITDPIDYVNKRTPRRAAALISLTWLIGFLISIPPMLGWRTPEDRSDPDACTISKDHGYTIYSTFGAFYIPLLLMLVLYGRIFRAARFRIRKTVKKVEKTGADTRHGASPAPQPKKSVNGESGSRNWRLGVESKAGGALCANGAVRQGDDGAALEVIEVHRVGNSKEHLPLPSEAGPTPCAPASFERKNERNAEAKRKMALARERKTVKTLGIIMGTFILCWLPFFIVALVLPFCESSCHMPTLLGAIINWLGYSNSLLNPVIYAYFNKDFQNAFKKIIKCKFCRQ
Type of experiment: functional, cell-based.

Experiment [9] deals with T7, Alpha-1A adrenergic receptor (Homo sapiens, UniProt P35348).
T7 sequence (P35348 whole entry): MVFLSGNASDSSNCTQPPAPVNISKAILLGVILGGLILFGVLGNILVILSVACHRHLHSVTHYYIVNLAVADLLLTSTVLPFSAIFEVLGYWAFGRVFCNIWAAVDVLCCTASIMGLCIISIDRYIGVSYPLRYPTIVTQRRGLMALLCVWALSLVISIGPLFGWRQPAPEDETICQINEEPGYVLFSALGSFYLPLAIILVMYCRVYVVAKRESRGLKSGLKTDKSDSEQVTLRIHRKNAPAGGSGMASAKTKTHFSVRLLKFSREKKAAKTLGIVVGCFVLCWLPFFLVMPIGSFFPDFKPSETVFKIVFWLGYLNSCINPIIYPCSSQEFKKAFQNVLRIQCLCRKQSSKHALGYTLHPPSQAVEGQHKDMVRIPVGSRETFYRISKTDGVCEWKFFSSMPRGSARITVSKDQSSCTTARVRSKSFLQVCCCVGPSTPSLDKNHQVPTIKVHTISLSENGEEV

The target of experiment [10] is T2, Cannabinoid receptor 1.
Note: assay procedure not described here.

Chain of Adenosine receptor A2a (P29274 whole entry): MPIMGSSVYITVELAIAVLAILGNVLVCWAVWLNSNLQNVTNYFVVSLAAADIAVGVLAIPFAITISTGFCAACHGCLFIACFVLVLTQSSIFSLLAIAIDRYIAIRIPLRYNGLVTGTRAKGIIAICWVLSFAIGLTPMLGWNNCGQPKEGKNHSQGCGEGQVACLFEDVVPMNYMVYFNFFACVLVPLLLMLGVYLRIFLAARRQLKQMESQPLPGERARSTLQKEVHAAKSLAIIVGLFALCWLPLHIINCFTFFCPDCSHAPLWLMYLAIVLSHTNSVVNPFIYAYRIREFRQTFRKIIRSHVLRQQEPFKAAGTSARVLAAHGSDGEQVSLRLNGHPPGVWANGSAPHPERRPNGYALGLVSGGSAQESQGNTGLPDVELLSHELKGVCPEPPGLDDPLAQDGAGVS
Chain of Melanocortin receptor 4 (P32245 whole entry): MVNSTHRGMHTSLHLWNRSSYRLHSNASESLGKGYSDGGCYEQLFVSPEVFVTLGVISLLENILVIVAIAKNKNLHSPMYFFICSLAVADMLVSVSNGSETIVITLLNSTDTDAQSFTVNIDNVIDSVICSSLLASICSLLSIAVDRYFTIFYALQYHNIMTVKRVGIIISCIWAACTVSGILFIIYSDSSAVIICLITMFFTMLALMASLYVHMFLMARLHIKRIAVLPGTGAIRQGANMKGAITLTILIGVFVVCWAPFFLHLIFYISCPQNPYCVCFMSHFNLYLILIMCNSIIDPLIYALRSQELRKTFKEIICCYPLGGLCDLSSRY
Chain of Mu-type opioid receptor (P35372 whole entry): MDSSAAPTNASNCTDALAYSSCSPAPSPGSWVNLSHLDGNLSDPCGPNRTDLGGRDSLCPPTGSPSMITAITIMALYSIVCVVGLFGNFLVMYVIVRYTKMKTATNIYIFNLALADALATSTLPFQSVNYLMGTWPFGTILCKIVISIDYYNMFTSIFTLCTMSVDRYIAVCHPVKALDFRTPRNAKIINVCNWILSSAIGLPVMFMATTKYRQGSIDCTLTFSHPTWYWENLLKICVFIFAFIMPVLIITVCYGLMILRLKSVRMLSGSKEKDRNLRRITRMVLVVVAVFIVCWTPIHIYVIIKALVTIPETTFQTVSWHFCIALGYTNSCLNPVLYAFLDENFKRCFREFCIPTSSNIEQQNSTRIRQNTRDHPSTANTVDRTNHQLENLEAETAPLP

As a reminder, the AC50 is the concentration at which the activity in the assay is half-maximal. The low end stands for greater potency, the high end for weaker potency. Consider `CC(=O)O[C@H](CC(=O)[O-])C[N+](C)(C)C` [ACETYLCARNITINE], for which the AC50 (on Adenosine receptor A2a; on Adenosine receptor A3; in experiment [1]; in experiment [2]; at Cannabinoid receptor 1 [3]; at Cannabinoid receptor 1 [4]) was more than 30 µM in each case. The AC50 at Endothelin-1 receptor is more than 30 µM; in [5], more than 30 µM; in experiment [6], more than 30 µM; in experiment [7], more than 10 µM.

For the compound `Oc1ccc2c(c1)[C@@]13CCCC[C@@]1(O)[C@@H](C2)N(CC1CCC1)CC3` [BUTORPHANOL], the AC50 (at Adenosine receptor A2a; at Adenosine receptor A3; in experiment [1]; in experiment [2]; at Cannabinoid receptor 1 [3]; on Cannabinoid receptor 1 [4]) was more than 30 µM throughout. Moreover, the AC50 (on Endothelin-1 receptor; in experiment [8]; in experiment [5]; in experiment [6]; in [7]) was more than 30 µM in each case.

For `CCN(CC)C(=O)Nc1ccc(OCC(O)CNC(C)(C)C)c(C(C)=O)c1` (centres undefined) [CELIPROLOL], the AC50 (on Adenosine receptor A2a; on Adenosine receptor A3; in experiment [1]; in experiment [2]; on Cannabinoid receptor 1 [3]; on Cannabinoid receptor 1 [4]) was more than 30 µM each time. In addition, the AC50 (at Endothelin-1 receptor; in [8]; in [5]; in [6]; in [7]) was more than 30 µM throughout.

As to `C=C[C@@]1(C)CC(=O)[C@]2(O)[C@@]3(C)[C@@H](O)CCC(C)(C)[C@@H]3[C@H](O)[C@H](OC(C)=O)[C@@]2(C)O1` [COLFORSIN], the AC50 (at Adenosine receptor A2a; on Adenosine receptor A3; in [2]; at Cannabinoid receptor 1 [3]; at Cannabinoid receptor 1 [4]; on Endothelin-1 receptor) was more than 30 µM throughout. In addition, the concentration at half-maximal activity (AC50) is 1.2 µM in [8], more than 30 µM in experiment [5], 18 µM in experiment [6] and more than 30 µM in experiment [7].

As for `CC(=O)[C@@]1(O)CC[C@H]2[C@@H]3C=C(Cl)C4=CC(=O)[C@@H]5C[C@@H]5[C@]4(C)[C@H]3CC[C@@]21C` [CYPROTERONE], the AC50 at Adenosine receptor A2a was more than 10 µM; at Adenosine receptor A3, more than 10 µM; in experiment [9], more than 10 µM; in [2], more than 30 µM; at Cannabinoid receptor 1 [10], more than 10 µM; in experiment [8], more than 10 µM. In addition, the AC50 in [5] is more than 10 µM; in [6], more than 10 µM; at Melanocortin receptor 4, more than 10 µM; in experiment [7], more than 10 µM; at Mu-type opioid receptor it was more than 30 µM.

Consider `O=C(O)c1ccccc1Nc1cc(Cl)ccc1C(=O)O` [LOBENZARIT], for which the AC50 (at Adenosine receptor A2a; on Adenosine receptor A3; in [1]; in experiment [2]; at Cannabinoid receptor 1 [3]; at Cannabinoid receptor 1 [4]) was more than 30 µM in each case. Moreover, the AC50 (on Endothelin-1 receptor; in experiment [5]; in experiment [6]) was more than 30 µM throughout.

Take `CCOC(=O)O[C@]1(C(=O)OCCl)CC[C@H]2[C@@H]3CCC4=CC(=O)C=C[C@]4(C)[C@H]3[C@@H](O)C[C@@]21C` [LOTEPREDNOL ETABONATE]: the AC50 (on Adenosine receptor A2a; on Adenosine receptor A3; in experiment [2]; on Cannabinoid receptor 1 [10]; at Endothelin-1 receptor; in experiment [5]) was more than 30 µM each time. Further, the AC50 in [6] and in experiment [7] was more than 30 µM each time.

For the compound `COc1cc2c(cc1OC)C(CCc1ccc(Cl)cc1)N(C)CC2` (centres undefined) [METHOPHOLINE], the AC50 on Adenosine receptor A2a is more than 30 µM; at Adenosine receptor A3 it was more than 30 µM; in experiment [9], more than 10 µM; in experiment [2], more than 30 µM; at Cannabinoid receptor 1 [10] it was more than 10 µM; in experiment [8], more than 10 µM. The AC50 was more than 10 µM in experiment [5]; more than 10 µM in experiment [6]; more than 30 µM on Melanocortin receptor 4; 0.77 µM in experiment [7]; more than 30 µM on Mu-type opioid receptor.

Regarding `COc1ccc(-c2noc(CC(=O)O)c2-c2ccc(OC)cc2)cc1` [MOFEZOLAC], the AC50 (on Adenosine receptor A2a; on Adenosine receptor A3; in [1]; in experiment [2]; at Cannabinoid receptor 1 [3]; at Cannabinoid receptor 1 [4]) was more than 30 µM each time. The AC50 at Endothelin-1 receptor was more than 30 µM; in experiment [5], more than 30 µM; in experiment [6] it was more than 30 µM; in experiment [7] it was 0.037 µM.

For the compound `C#CCOc1ccc(N)cc1C(=O)NCCCC` [PARSALMIDE], the AC50 (at Adenosine receptor A2a; on Adenosine receptor A3; in experiment [2]; on Cannabinoid receptor 1 [3]; on Cannabinoid receptor 1 [4]; on Endothelin-1 receptor) was more than 30 µM in each case. Further, the AC50 in experiment [8] was more than 30 µM; in [5], more than 30 µM; in experiment [6], 30 µM; in experiment [7], 2.3 µM.

In the case of `COc1ccc2nc3cc(Cl)ccc3c(Nc3cc(CN4CCCC4)c(O)c(CN4CCCC4)c3)c2n1` [PYRONARIDINE], the AC50 is more than 30 µM on Adenosine receptor A2a; 15 µM at Adenosine receptor A3; 25 µM in [2]; more than 30 µM at Cannabinoid receptor 1 [3]; more than 30 µM at Cannabinoid receptor 1 [4]; more than 30 µM at Endothelin-1 receptor. Also, the AC50 in experiment [5], in [6] and in experiment [7] was more than 30 µM in each case.

Take `CC1=C(C)C(=O)C(C(CCCCCC(=O)O)c2ccccc2)=C(C)C1=O` (centres undefined) [SERATRODAST]: the AC50 (on Adenosine receptor A2a; at Adenosine receptor A3; in [9]; in experiment [2]; on Cannabinoid receptor 1 [10]; in experiment [5]) was more than 30 µM each time. In addition, the results for the AC50 (in experiment [6]; on Melanocortin receptor 4; in experiment [7]) were more than 30 µM, more than 30 µM and 1.14 µM, respectively.
